Here are results for 27 compounds from PubChem BioAssay AID1117350 (Cheminformatics & Chemogenomics Research Group (CCRG), …, 2015).

The source made the active and inactive calls. The rule behind the calls is not given here. Where only a bound is given, the exact number is not on record here.

What is called IC50 is the point on the concentration scale where inhibition reaches its midpoint.

The assay has as its system HeLa, chromatin condensation phenotype imaging. Put plainly: condensed chromatin phenotype in HeLa cells – imaging, IC50, dose response (AID 1117350).
In the case of `CCC(C)n1ncn(-c2ccc(N3CCN(c4ccc(OC[C@H]5CO[C@](Cn6cncn6)(c6ccc(Cl)cc6Cl)O5)cc4)CC3)cc2)c1=O` (some centres not stated), the IC50 is > 10 µM (inactive). For `CC[C@]1(O)C[C@H]2CN(CCc3c([nH]c4ccccc34)[C@@](C(=O)OC)(c3cc4c(cc3OC)N(C=O)[C@H]3[C@@](O)(C(=O)OC)[C@H](OC(C)=O)[C@]5(CC)C=CCN6CC[C@]43[C@@H]65)C2)C1`, the IC50 was 0.0061 µM.

With `CO[C@@H]1[C@@H](OC)[C@H](C)[C@@](O)(CC(=O)O)O[C@H]1[C@H](C)[C@H]1O[C@@]2(CC[C@@](C)([C@H]3CC[C@@](C)([C@@H]4O[C@@H]([C@H]5O[C@](C)(O)[C@H](C)C[C@@H]5C)C[C@@H]4OC4C[C@H](OC)[C@@H](OC)[C@H](C)O4)O3)O2)C[C@H](O)[C@H]1C` (some centres not stated), the IC50 was > 10 µM (inactive). In the case of `CCCCCCCCCCCCCCCC[n+]1ccccc1`, the IC50 is 0.515 µM. For `C[C@@]12C(=O)OC(=O)[C@]1(C)C1CCC2O1`, the IC50 was 8.5 µM (inactive). The result for `COc1cc([C@@H]2c3cc4c(cc3[C@H](O)[C@H]3COC(=O)[C@H]23)OCO4)cc(OC)c1OC` reads 0.0112 µM.

On to `COc1ccc(/C=C/C(=O)c2ccc(OC)cc2OC)cc1`, for which the IC50 was > 10 µM (inactive). In the case of `OC[C@H]1O[C@@H](n2cnc3c(=S)nc[nH]c32)[C@H](O)[C@@H]1O`, the IC50 was > 10 µM (inactive). The result for `Cn1cnc([N+](=O)[O-])c1Sc1ncnc2nc[nH]c12` reads > 10 µM (inactive); that for `CCCCCCCCCCCC(=O)[O][Sn]([CH2]CCC)([CH2]CCC)[O]C(=O)CCCCCCCCCCC`, > 10 µM (inactive); that for `NC(=NCCCCCCN=C(N)/N=C(\N)Nc1ccc(Cl)cc1)/N=C(\N)Nc1ccc(Cl)cc1`, > 10 µM (inactive). With `Cc1nc2ccccc2n1Cc1ccc(Cl)cc1` the figure was > 10 µM (inactive); with `CCCCCCNC(=O)n1cc(F)c(=O)[nH]c1=O`, > 10 µM (inactive); with `CC[n+]1c(-c2ccccc2)c2cc(N)ccc2c2ccc(N)cc21`, > 10 µM (inactive). With `Clc1ccc(Nc2nnc(Cc3ccncc3)c3ccccc23)cc1` the figure was > 10 µM (inactive); with `Cc1cc(CC(C)CC(C)(C)C)n(O)c(=O)c1` (configuration not stated), > 10 µM (inactive). Regarding `Oc1ccc([C@H]2CNCc3c2ccc(O)c3O)cc1O`, the IC50 was > 10 µM (inactive). With `COC(=O)[C@H]1[C@H]2C[C@@H]3c4[nH]c5cc(OC)ccc5c4CCN3C[C@H]2C[C@@H](OC(=O)/C=C/c2ccc(O)c(OC)c2)[C@@H]1OC` the figure was > 10 µM (inactive); with `O=c1[nH]c(=O)n([C@H]2C[C@H](O)[C@@H](CO)O2)cc1Br`, > 10 µM (inactive); with `COc1ccc(-c2nc3ccc(C4=NNC(=O)CC4C)cc3[nH]2)cc1` (configuration not stated), > 10 µM (inactive). With `Cc1ccc2c(c1)c1c3n2CCNC3CCC1` (configuration not stated) the figure was > 10 µM (inactive). On to `O=[N+]([O-])c1ccc(O)c2ncccc12`, for which the IC50 was > 10 µM (inactive). In the case of `CCc1oc2ccccc2c1C(=O)c1cc(I)c(O)c(I)c1`, the IC50 was > 10 µM (inactive). With `COc1c(C)c2c(c(O)c1C/C=C(\C)CCC(=O)OCCN1CCOCC1)C(=O)OC2`, the IC50 is > 10 µM (inactive). As to `COc1ccc2cc1Oc1ccc(cc1)C[C@H]1c3c(cc4c(c3Oc3cc5c(cc3OC)CCN(C)[C@@H]5C2)OCO4)CCN1C`, the IC50 is > 10 µM (inactive). The result for `CCCNCC(O)COc1ccccc1C(=O)CCc1ccccc1` (configuration not stated) reads > 10 µM (inactive); that for `CC(C)n1c(/C=C/[C@@H](O)C[C@@H](O)CC(=O)O)c(-c2ccc(F)cc2)c2ccccc21`, > 10 µM (inactive).
